Assay results as given in PubChem BioAssay AID686998 (Broad Institute, 2013).
Values joined by “and” are separate entries in the source; they are usually repeats but may differ in a detail not shown here. Identical values can stand only once. Results filed as inconclusive are left out. Active and inactive are the calls of the source.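 The calls were made as follows: active = falling signal with fitted half-maximal potency no higher than twice the top valid tested dose; inconclusive = poor fit quality, or flat fit spanning -70% to -30%; inactive = potency over limit, rising signal, or flat fit inside 30%.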

Tested on: Cryptococcus neoformans growth, Alamar Blue, 24 h
Assay: Cryptococcus neoformans growth inhibition, dose response, Alamar Blue, cherry-picks (AID 686998)

**Q.** With COC(=O)C1=C(C)N(CC(C)C)C(=S)NC1c1ccc(-c2ccccc2)cc1 (centres undefined) as the molecule, how does the IC50 read?
**A.** 3.78 µM and 3.99 µM

**Q.** CC(C)CC#Cc1cnc2c(c1)C(=O)N([C@@H](C)CO)C[C@@H](C)[C@@H](CN(C)C(=O)c1cccc(F)c1)O2 was tested. Which IC50 did it give?
**A.** 45.8 µM

**Q.** COc1ccccc1/C=N/NC(=S)NCc1ccco1 was tested. Which IC50 did it give?
**A.** 12.8 µM

**Q.** How did the IC50 turn out when COC(=O)C1=C(C)N(Cc2ccc(F)cc2)C(=S)NC1c1cccc(Br)c1 (centres undefined) was run?
**A.** 6.82 µM

**Q.** For O=C(C[C@@H]1C=C[C@@H](NC(=O)Nc2cc(F)ccc2F)[C@H](CO)O1)NCCCN1CCOCC1, which IC50 is on record?
**A.** 68.3 µM

**Q.** Which IC50 does the source give for CNC[C@@H]1Oc2ccc(NS(=O)(=O)c3ccc(Cl)cc3)cc2C(=O)N([C@H](C)CO)C[C@H]1C here?
**A.** 46.4 µM

**Q.** Which IC50 does the source give for CCCn1c(=S)[nH]c2cc(Cl)ccc21 here?
**A.** 22.9 µM

**Q.** With Cc1cccc(-c2ccc([C@@H]3[C@@H](CO)N4CCCCN(S(=O)(=O)c5ccccc5C)C[C@@H]34)cc2)c1 as the molecule, how does the IC50 read?
**A.** 2.62 µM

**Q.** How did the IC50 turn out when CC(NC(=O)COc1ccccc1-c1ccccc1)c1ccccc1 (centres undefined) was run?
**A.** 2.53 µM

**Q.** Which IC50 does the source give for COC(=O)C1=C(C)N(Cc2ccc(Cl)cc2)C(=S)NC1c1ccccc1 (centres undefined) here?
**A.** 10.8 µM

**Q.** With C[C@@H]1CN([C@H](C)CO)S(=O)(=O)c2ccc(-c3ccccc3)cc2O[C@H]1CN(C)C(=O)C1CCCCC1 as the molecule, how does the IC50 read?
**A.** 65.5 µM

**Q.** With COC(=O)C1=C(C)N(Cc2ccc(Cl)cc2)C(=S)NC1c1cccc(F)c1 (centres undefined) as the molecule, how does the IC50 read?
**A.** 20.4 µM

**Q.** With Cc1c(Cl)cccc1NC(=S)NCCc1ccc(Cl)cc1 as the molecule, how does the IC50 read?
**A.** 5.38 µM

**Q.** For C[C@H]1CN([C@@H](C)CO)C(=O)Cc2cc(NC(=O)C3CC3)ccc2O[C@@H]1CN(C)C(=O)Nc1cccc2ccccc12, which IC50 is on record?
**A.** 53.6 µM

**Q.** For Fc1ccccc1NC(=S)NCCc1cccc(Cl)c1, which IC50 is on record?
**A.** 16 µM

**Q.** How did the IC50 turn out when Cc1ccccc1NC(=S)NC(=O)CCc1ccccc1 was run?
**A.** 5.62 µM

**Q.** With COCC(=O)Nc1ccc2c(c1)C(=O)N(C)C[C@H](OC)[C@@H](C)CN(C(=O)c1ccccc1)[C@@H](C)CO2 as the molecule, how does the IC50 read?
**A.** > 70 µM (inactive)

**Q.** O=C(NC(=S)Nc1ccc(Br)cc1)C1CCC1 was tested. Which IC50 did it give?
**A.** 15.8 µM

**Q.** Which IC50 does the source give for C[C@H]1CN([C@@H](C)CO)C(=O)CCCn2cc(nn2)CO[C@@H]1CN(C)Cc1ccc(C(F)(F)F)cc1 here?
**A.** 30.7 µM
